According to patent US4824836A, “Spiro (4,5) decone compounds” (Adir et Compagnie, priority 1987, dated 1989):

Test system: Peritoneal rat mastocytes
Assay: mastocyte degranulation test in vitro (inhibition of compound 48/80-induced histamine granule release)
Type: cell-based
Details: rat peritoneal mastocytes incubated with compound 48/80; dose that inhibits histamine granule release by 50%
Experimental: The compounds of the invention and fenspiride, a prior art product taken as reference substance, were subjected to the mastocyte degranulation test:
Peritoneal rat mastocytes are incubated in vitro in the presence of compound 48/80, which causes histamine granules to be released. The protective effect of the tested compounds is expressed in IC50, that is to say the (molar) dose that inhibits this release by 50%.

| Structure (SMILES) | IC50 | Mastocyte degranulation in vitro - IC50 |
| --- | --- | --- |
| CCCc1c(OCCCN2CCC3(CC2)CNC(=O)O3)ccc(C(C)=O)c1OC(C)=O [Example 6, 8-[3-(2-propyl-3-acetoxy-4-acetylphenoxy)propyl]-1-oxa-2-oxo-3,8-diaza-spiro[4.5]decane] | 1200 µM |  |
| CCCc1c(OCCCN2CCC3(CC2)CNC(=O)O3)ccc2c(=O)cc(C(=O)O)oc12 [Example 3, 8-[3-(2-carboxy-8-propyl-7-chrom-4-onyloxy)propyl]-1-oxa-2-oxo-3,8-diaza-spiro[4.5]decane] | 1000 µM |  |
| CCCc1c(OCCCCN2CCC3(CC2)CNC(=O)O3)ccc(C(C)=O)c1O [Example 1b, 8-[4-(2-propyl-3-hydroxy-4-acetylphenoxy)butyl]-1-oxa-2-oxo-3,8-diaza-spiro[4.5]decane] | 200 µM |  |
| CCCc1c(OCCCCCN2CCC3(CC2)CNC(=O)O3)ccc(C(C)=O)c1OC(C)=O [Example 6a, 8-[5-(2-propyl-3-acetoxy-4-acetylphenoxy)pentyl]-1-oxa-2-oxo-3,8-diaza-spiro[4.5]decane] | 2000 µM |  |
| CCc1c(OCCCN2CCC3(CC2)CNC(=O)O3)ccc(C(C)=O)c1O [Example 1k, 8-[3-(2-ethyl-3-hydroxy-4-acetylphenoxy)propyl]-1-oxa-2-oxo-3,8-diaza-spiro[4.5]decane] | 830 µM |  |
| CCCc1c(OCCCN2CCC3(CC2)OC(=O)NC3C)ccc(C(C)=O)c1O (centres unmarked) [Example 2, 8-[3-(2-propyl-3-hydroxy-4-acetylphenoxy)propyl]-1-oxa-2-oxo-3,8-diaza-4-methyl-spiro[4.5]decane] | 200 µM |  |
| CCCc1c(OCCCCCN2CCC3(CC2)CNC(=O)O3)ccc(C(C)=O)c1O [Example 1d, 8-[5-(2-propyl-3-hydroxy-4-acetylphenoxy)pentyl]-1-oxa-2-oxo-3,8-diaza-spiro[4.5]decane] | 110 µM |  |
| CCCc1c(OCCCN2CCC3(CC2)CNC(=O)O3)ccc(C(C)=O)c1O [Example 1, 8-[3-(2-propyl-3-hydroxy-4-acetylphenoxy)propyl]-1-oxa-2-oxo-3,8-diaza-spiro[4.5]decane] | 240 µM |  |
| CCCc1c(OCCCN2CCC3(CC2)CNC(=O)O3)ccc2c(=O)cc(C(=O)OCC)oc12 [Example 1i, 8-[3-(2-ethoxycarbonyl-8-propyl-7-chrom-4-onyloxy)propyl]-1-oxa-2-oxo-3,8-diaza-spiro[4.5]decane] | 100 µM |  |
| C=CCc1c(OCCCN2CCC3(CC2)CN(C(C)=O)C(=O)O3)ccc(C(C)=O)c1OC(C)=O [Example 4a, 8-[3-(2-allyl-3-acetoxy-4-acetylphenoxy)propyl]-1-oxa-2-oxo-3,8-diaza-3-acetyl-spiro[4.5]decane] | 2500 µM |  |
| CC(=O)c1ccc(OCCCN2CCC3(CC2)CNC(=O)O3)c(CC(C)C)c1O [Example 1l, 8-[3-(2-isobutyl-3-hydroxy-4-acetylphenoxy)propyl]-1-oxa-2-oxo-3,8-diaza-spiro[4.5]decane] | 116 µM |  |
| CCCc1c(OCCN2CCC3(CC2)CNC(=O)O3)ccc(C(C)=O)c1O [Example 1a, 8-[2-(2-propyl-3-hydroxy-4-acetylphenoxy)ethyl]-1-oxa-2-oxo-3,8-diaza-spiro[4.5]decane] | 200 µM |  |
| CCCc1c(OCC(O)CN2CCC3(CC2)CNC(=O)O3)ccc(C(C)=O)c1O (centres unmarked) [Example 1c, 8-[3-(2-propyl-3-hydroxy-4-acetylphenoxy)-2-hydroxypropyl]-1-oxa-2-oxo-3,8-diaza-spiro[4.5]decane] | 1000 µM |  |
| CCCc1c(OCCCCCCN2CCC3(CC2)CNC(=O)O3)ccc(C(C)=O)c1O [Example 1e, 8-[6-(2-propyl-3-hydroxy-4-acetylphenoxy)hexyl]-1-oxa-2-oxo-3,8-diaza-spiro[4.5]decane] | 92 µM |  |
| CCCc1c(OCCN2CCC3(CC2)OC(=O)NC3C)ccc(C(C)=O)c1O (centres unmarked) [Example 1f, 8-[2-(2-propyl-3-hydroxy-4-acetylphenoxy)ethyl]-1-oxa-2-oxo-3,8-diaza-4-methyl-spiro[4.5]decane] | 100 µM |  |
| CCCc1c(OCCCN2CCC3(CC2)CNC(=O)O3)ccc2c1OCCC2=O [Example 1j] | 100 µM |  |
| CCCc1c(OCCCN2CCC3(CC2)CN(C(C)=O)C(=O)O3)ccc(C(C)=O)c1OC(C)=O [Example 4, 8-[3-(2-propyl-3-acetoxy-4-acetylphenoxy)propyl]-1-oxa-2-oxo-3,8-diaza-3-acetyl-spiro[4.5]decane] | 720 µM |  |
| CC(=O)Oc1c(C(C)=O)ccc(OCCCN2CCC3(CC2)CN(C(C)=O)C(=O)O3)c1CC(C)C [Example 4d, 8-[3-(2-isobutyl-3-acetoxy-4-acetylphenoxy)propyl]-1-oxa-2-oxo-3,8-diaza-3-acetyl-spiro[4.5]decane] | 730 µM |  |
| CCCc1c(OCCCCCN2CCC3(CC2)CN(C(C)=O)C(=O)O3)ccc(C(C)=O)c1OC(C)=O [Example 4b, 8-[5-(2-propyl-3-acetoxy-4-acetylphenoxy)pentyl]-1-oxa-2-oxo-3,8-diaza-3-acetyl-spiro[4.5]decane] | 1000 µM |  |
| O=C1NCC2(CCN(CCc3ccccc3)CC2)O1 [fenspiride, reference compound] |  | inactive |
| C=CCc1c(OCCCN2CCC3(CC2)CN(C(C)=O)C(=O)O3)ccc(C(C)=O)c1O [Example 5, 8-[3-(2-allyl-3-hydroxy-4-acetylphenoxy)propyl]-1-oxa-2-oxo-3,8-diaza-3-acetyl-spiro[4.5]decane] | 750 µM |  |
| CCc1c(OCCCN2CCC3(CC2)CN(C(C)=O)C(=O)O3)ccc(C(C)=O)c1OC(C)=O [Example 4c, 8-[3-(2-ethyl-3-acetoxy-4-acetylphenoxy)propyl]-1-oxa-2-oxo-3,8-diaza-3-acetyl-spiro[4.5]decane] | > 1000 µM |  |
| C=CCc1c(OCCCN2CCC3(CC2)CNC(=O)O3)ccc(C(C)=O)c1O [Example 1h, 8-[3-(2-allyl-3-hydroxy-4-acetylphenoxy)propyl]-1-oxa-2-oxo-3,8-diaza-spiro[4.5]decane] | 250 µM |  |
